Assay results as given in patent US7488811B2, “Macrolide compounds endowed with antiinflammatory activity” (Zambon Group S.p.A., priority 2002, dated 2009).

Legend:
[1] = system: PMA-induced oedema in mouse ear; assay: Acute contact dermatitis: TPA (PMA)-induced ear oedema in mice; type: in vivo; details: CD1 mice, 500 μg/ear topical in TPDS 30 min before TPA 0.01%, 6 h
Experimental: Groups of 5-6 CD1 mice (18-24 g) were used. • Administration of the compounds
All the macrolide compounds were dissolved in Trans-phase Delivery System (TPDS), a vehicle formed by 10% benzyl alcohol, 40% acetone and 50% isopropanol.
15 microlitres of the compounds (500 μg), dissolved in TPDS, were applied topically to the inner surface of an ear; 30 minutes later, 12 microlitres of a solution of tetradecanoylphorbol acetate (TPA) at a concentration of 0.01% dissolved in acetone were applied to the same area.
Six hours later, the animals were sacrificed by inhalation of CO2. • Evaluation of the results
Two methods were used to evaluate the auricular oedema: • a) Weight of a given portion of auricular pinna. • b) Measurement of the auricular thickness using precision spring callipers.
The degree of oedema was calculated by subtracting the weight or the thickness of the untreated ear from that of the contralateral treated ear. To determine the degree of remission of the oedema, the difference (weight or thickness) of the groups treated with TPA+macrolides was then compared with the groups treated with TPA alone.
The activity of the macrolide compounds was measured by using the modified method of Zunic et al. (1998): MDL (Lysyl) GDP, a non-toxic muramyl dipeptide derivative inhibits cytokine production by activated macrophages and protects mice from phorbol ester- and oxazolone-induced inflammation (J. Invest. Dermatol., 111(1), 77-82).
The data relating to erythromycin and azythromycin concern the treatment with a single dose of 500 μg/ear.

[2] = system: Staphylococcus aureus ATCC 6538; assay: Antibiotic activity at 128 μg/ml; type: cell-based; details: Staph. aureus ATCC 6538; 128 μg/ml
Experimental: (§1) The MIC values were determined in liquid earth according to the method described in “Manual of Clinical Microbiology, 7th edition (1999), American Society for Microbiology”.

[3] = system: Streptococcus pyogenes ATCC 19615; assay: Antibiotic activity at 128 μg/ml; type: cell-based; details: Strep. pyogenes ATTC 19615; 128 μg/ml
Experimental: as §1

[4] = system: Enterococcus faecalis ATCC 29212; assay: Antibiotic activity, MIC or activity at 128 μg/ml; type: cell-based; details: Enter. faecalis ATCC 29212; for MIC: Enterococcus faecalis, ATCC29212
Experimental: as §1

[5] = system: Staphylococcus aureus ATCC 29213; assay: Antibiotic activity, MIC in liquid medium; type: cell-based; details: ATCC29213, Staph. aureus ATCC 29213
Experimental: as §1

[6] = system: Streptococcus pneumoniae ATCC 49619; assay: Antibiotic activity, MIC in liquid medium; type: cell-based; details: ATCC49619, Strep. pneum ATTC 49619
Experimental: as §1

[7] = system: LPS-induced accumulation of neutrophils in rat lungs; assay: LPS-induced pulmonary inflammation in rats (neutrophil count in bronchial fluid wash); type: in vivo; details: Rattus norvegicus, Neutrophil, single oral dose 100, 40, 10 μmol/kg one hour before LPS 0.4 mg/kg endotracheal, 20 h, erythromycin: single oral dose 130 μmol/kg, read-out: ED50 (dose inducing 50% reduction in neutrophil count in bronchial fluid wash)
Experimental: B) LPS-Induced Pulmonary Inflammation in Rats • Administration
The rats received endotracheally, via the peroral route, a single dose of 0.4 mg/kg of LPS (E. coli, serotype 026:6). The tracheal instillation was performed under anaesthesia with halothane and, 20 hours after the endotracheal administration of LPS/saline solution, the animals were sacrificed by means of an overdose of urethane. • Washing
The lungs were washed with 4 aliquots of 5 ml each of saline solution with 10 IU ml^−1 heparin. The cell suspension was concentrated by low-speed centrifugation and the cell pellet was suspended. • Counting of the Cells and Differentiation.
The total cell count was performed in a haemocytometer.
The differential counting was performed on cytospin preparations stained with May-Grunwald-Giemsa (Tamaoki J., Tagaya E., Yamawaki I., Sakai, Nagai A., Konno K, 1995. Effect of erythromycin on endotoxin-induced microvascular leakage in the rat trachea and lungs. Am. J. Respir. Crit. Care Med., 151, 1582-8). The rats received the test compounds orally in doses of 100, 40 and 10 μmol/kg as a single administration dose orally one hour before exposure to LPS.
ED50 value is the dose that induced a 50% reduction in the neutrophil count in the bronchial fluid wash.
The data relating to erythromycin refers to an oral treatment with a single dose of 130 μmol/kg.

[8] = method a: weight of a given portion of auricular pinna
[9] = method b: auricular thickness by precision spring callipers

MIC [5] [µg/mL] | MIC [6] [µg/mL] | MIC [4] [µg/mL] | Structure (SMILES) | inhibition in vivo at 500 µg/ear [1, 8] [%] | Antibiotic activity at 128 μg/ml [2] | Antibiotic activity at 128 μg/ml [3] | Antibiotic activity at 128 μg/ml [4] | ED50 [7] [µmol/kg] | inhibition in vivo at 500 µg/ear [1, 9] [%]
 |  |  | CC[C@H]1OC(=O)[C@H](C)[C@@H](O)[C@H](C)[C@H](OC2O[C@H](C)C[C@H](N(C)C(C)=O)[C@@H]2O)C(C)(OC)C[C@H](C)/C(=N\O)[C@H](C)[C@@H](O)[C@]1(C)O (stereo partly shown) [Compound 29] | 44.5 |  |  |  |  | 
 |  |  | CC[C@H]1OC(=O)[C@H](C)[C@@H](O[C@H]2C[C@@](C)(OC)[C@@H](O)[C@H](C)O2)[C@H](C)[C@@H](O[C@@H]2O[C@H](C)C[C@H](N(C)C)[C@H]2O)[C@](C)(O)C[C@@H](C)CN(C)[C@H](C)[C@@H](O)[C@]1(C)O [Azythromycin, reference compound] | 40 |  |  |  |  | 
 |  |  | CC[C@H]1OC(=O)[C@H](C)[C@@H](O)[C@H](C)[C@@H](O[C@@H]2O[C@H](C)CC[C@H]2O)C(C)(O)C[C@@H](C)/C(=N\OCCNCCNCc2ccco2)[C@H](C)[C@@H](O)[C@]1(C)O (stereo partly shown) [Compound 26] |  | not active | not active | not active |  | 
 |  |  | CC[C@H]1OC(=O)[C@H](C)[C@@H](O)[C@H](C)[C@@H](O[C@@H]2O[C@H](C)C=C[C@H]2O)C(C)(O)C[C@@H](C)[C@H](O)[C@H](C)[C@@H](O)[C@]1(C)O (stereo partly shown) [Compound 9] | 32.4 |  |  |  |  | 
 |  |  | CC[C@H]1OC(=O)[C@H](C)[C@@H](O)[C@H](C)[C@@H](O[C@@H]2O[C@H](C)CC(N(C)C(=O)CNCCN(C)C)[C@H]2O)C(C)(O)C[C@@H](C)[C@H](O)[C@H](C)[C@@H](O)[C@]1(C)O (stereo partly shown) [Compound 6] | 30.9 |  |  |  |  | 
 |  |  | CC[C@H]1OC(=O)[C@H](C)[C@@H](O)[C@H](C)[C@@H](O[C@@H]2O[C@H](C)CC(N(C)CCCNCc3nccs3)[C@H]2O)C(C)(O)C[C@@H](C)[C@H](O)[C@H](C)[C@@H](O)[C@]1(C)O (stereo partly shown) [Compound 5] | 53.4 |  |  |  |  | 
> 128 | > 128 | > 128 | CC[C@H]1OC(=O)[C@H](C)[C@@H](O)[C@H](C)[C@@H](O[C@@H]2O[C@H](C)C[C@H]([N+](C)(C)[O-])[C@H]2O)C(C)(O)C[C@@H](C)[C@H](O)[C@H](C)[C@@H](O)[C@]1(C)O (stereo partly shown) [Compound 3] | 65.2 | not active | not active | not active |  | 
> 128 | > 128 | > 128 | CC[C@H]1OC(=O)[C@H](C)[C@@H](O)[C@H](C)[C@@H](O[C@@H]2O[C@H](C)C[C@H](N(C)C)[C@H]2O)C(C)(O)C[C@@H](C)/C(=N\O)[C@H](C)[C@@H](O)[C@]1(C)O (stereo partly shown) [Compound 11] | 70.2 | not active | not active | not active |  | 
 |  |  | CC[C@H]1OC(=O)[C@H](C)[C@@H](O)[C@H](C)[C@@H](O[C@@H]2O[C@H](C)C[C@H]([N+](C)(C)[O-])[C@H]2O)C(C)(O)C[C@@H](C)/C(=N\OC)[C@H](C)[C@@H](O)[C@]1(C)O (stereo partly shown) [Compound 16] | 72.3 |  |  |  |  | 
> 128 | > 128 | > 128 | CC[C@H]1OC(=O)[C@H](C)[C@@H](O)[C@H](C)[C@@H](O[C@@H]2O[C@H](C)C=C[C@H]2O)C(C)(O)C[C@@H](C)/C(=N\O)[C@H](C)[C@@H](O)[C@]1(C)O (stereo partly shown) [Compound 13] | 77.4 | not active | not active | not active |  | 
 |  |  | CC[C@H]1OC(=O)[C@H](C)[C@@H](O)[C@H](C)[C@H](OC2O[C@H](C)C[C@H](N(C)CCCOCc3cccnc3)[C@@H]2O)C(C)(O)C[C@H](C)[C@H](O)[C@H](C)[C@@H](O)[C@]1(C)O (stereo partly shown) [Compound 30] | 39.8 |  |  |  |  | 
 |  |  | CC[C@H]1OC(=O)[C@H](C)[C@@H](O)[C@H](C)[C@@H](O[C@@H]2O[C@H](C)CC[C@H]2O)C(C)(O)C[C@@H](C)/C(=N\O)[C@H](C)[C@@H](O)[C@]1(C)O (stereo partly shown) [Compound 14] | 71.5 |  |  |  | 15 | 
> 128 | > 128 | > 128 | CC[C@H]1OC(=O)[C@H](C)[C@@H](O)[C@H](C)[C@@H](O[C@@H]2O[C@H](C)C[C@H](N(C)C)[C@H]2O)C(C)(O)C[C@@H](C)[C@H](O)[C@H](C)[C@@H](O)[C@]1(C)O (stereo partly shown) [Compound 2] | 36.2 | not active | not active | not active |  | 
> 128 | > 128 | > 128 | CC[C@H]1OC(=O)[C@H](C)[C@@H](O)[C@H](C)[C@H](O[C@@H]2O[C@H](C)CC[C@@H]2O)[C@](C)(O)C[C@@H](C)/C(=N\OCCNCCNCc2nccs2)[C@H](C)[C@H](O)[C@]1(C)O [Compound 21] |  | not active | not active | not active |  | 74.1
> 128 | > 128 | > 128 | CC[C@H]1OC(=O)[C@H](C)[C@@H](O)[C@H](C)[C@H](O[C@@H]2O[C@H](C)CC([N+](C)(C)[O-])[C@@H]2O)[C@](C)(O)C[C@@H](C)/C(=N\OCCNCCNCc2nccs2)[C@H](C)[C@H](O)[C@]1(C)O (stereo partly shown) [Compound 20] |  |  |  |  |  | 49.9
> 128 | > 128 | > 128 | CC[C@H]1OC(=O)[C@H](C)[C@@H](O)[C@H](C)[C@@H](O[C@@H]2O[C@H](C)C[C@H](N(C)C)[C@H]2O)C(C)(OC)C[C@@H](C)[C@H](O)[C@H](C)[C@@H](O)[C@]1(C)O (stereo partly shown) [Compound 27] |  |  |  |  |  | 
 |  |  | CC[C@H]1OC(=O)[C@H](C)[C@@H](O)[C@H](C)[C@@H](O[C@@H]2O[C@H](C)C=C[C@H]2O)C(C)(O)C[C@@H](C)/C(=N\OC)[C@H](C)[C@@H](O)[C@]1(C)O (stereo partly shown) [Compound 17] | 41.9 |  |  |  |  | 
 |  |  | CC[C@H]1OC(=O)[C@H](C)[C@@H](O)[C@H](C)[C@@H](O[C@@H]2O[C@H](C)C[C@H](N(C)C)[C@H]2O)C(C)(O)C[C@@H](C)/C(=N\OC)[C@H](C)[C@@H](O)[C@]1(C)O (stereo partly shown) [Compound 15] | 31.6 | not active | not active | not active |  | 
> 128 | > 128 | > 128 | CC[C@H]1OC(=O)[C@H](C)[C@@H](O)[C@H](C)[C@@H](O[C@@H]2O[C@H](C)C[C@H]([N+](C)(C)[O-])[C@H]2O)C(C)(O)C[C@@H](C)/C(=N\O)[C@H](C)[C@@H](O)[C@]1(C)O (stereo partly shown) [Compound 12] | 87.4 | not active | not active | not active |  | 
 |  |  | CC[C@H]1OC(=O)[C@H](C)[C@@H](O)[C@H](C)[C@@H](O[C@@H]2O[C@H](C)C[C@H](N(C)CCNCCNCc3nccs3)[C@H]2O)[C@@](C)(O)C[C@@H](C)[C@H](O)[C@H](C)[C@@H](O)[C@]1(C)O [Compound 7] | 45 |  |  |  |  | 
